Data taken from ChEMBL document CHEMBL4184141, “Investigating the Antibacterial Activity of Biphenylthiazoles against Methicillin- and Vancomycin-Resistant Staphylococcus aureus (MRSA and VRSA)” (J Med Chem, 2017).
In brackets after ≈: the same amount, converted by molar mass. Activity calls are given as the source filed them. The calls are words filed in the database; no cut-off is given here.

Experiments:
[1] = Aqueous solubility of the compound in PBS after 2 hrs by turbidimetric method; type: physicochemical
[2] = test system: Staphylococcus aureus; experiment: Antibacterial activity against methicillin-resistant Staphylococcus aureus 2658 RCMB up to 20 hrs by broth microdilution assay; type: functional
[3] = test system: Staphylococcus aureus; experiment: Bactericidal activity against methicillin-resistant Staphylococcus aureus USA300 assessed as time required for 3 log10CFU reduction in bacterial load at 4 times MIC by time kill assay; type: functional
[4] = Apparent permeability of the compound across basolateral side to apical side in human Caco2 cells by LC-MS/MS analysis; type: ADME, cell-based; settings: Caco-2
[5] = Efflux ratio of permeability from basolateral to apical side over apical to basolateral side of human Caco2 cells by LC-MS/MS analysis; type: ADME, cell-based; settings: Caco-2
[6] = test system: Staphylococcus aureus; experiment: Bactericidal activity against methicillin-resistant Staphylococcus aureus NRS119 up to 18 hrs by broth microdilution assay; type: functional; settings: NRS119, 18 h, read-out: MBC99.9
[7] = test system: Staphylococcus aureus; experiment: Bactericidal activity against methicillin-resistant Staphylococcus aureus USA400 NRS123 up to 18 hrs by broth microdilution assay; type: functional; settings: USA400 NRS123, 18 h, read-out: MBC99.9
[8] = test system: Staphylococcus aureus; experiment: Antibacterial activity against vancomycin-resistant Staphylococcus aureus VRS12 up to 20 hrs by broth microdilution assay; type: functional; settings: VRS12, 20 h
[9] = test system: Staphylococcus aureus; experiment: Bactericidal activity against vancomycin-resistant Staphylococcus aureus VRS11a up to 18 hrs by broth microdilution assay; type: functional; settings: read-out: MBC99.9
[10] = test system: Staphylococcus aureus; experiment: Bactericidal activity against vancomycin-resistant Staphylococcus aureus VRS12 up to 18 hrs by broth microdilution assay; type: functional; settings: VRS12, 18 h, read-out: MBC99.9
[11] = test system: Staphylococcus aureus; experiment: Bactericidal activity against methicillin-resistant Staphylococcus aureus USA300 assessed as time required to reduce bacterial load to 0 at 4 times MIC by time-kill assay; type: functional
[12] = test system: Staphylococcus aureus; experiment: Antibacterial activity against vancomycin-resistant Staphylococcus aureus VRS10 up to 20 hrs by broth microdilution assay; type: functional; settings: VRS10, 20 h
[13] = test system: Enterococcus faecium; experiment: Antibacterial activity against vancomycin-resistant Enterococcus faecium ATCC 700221 up to 20 hrs by broth microdilution assay; type: functional; settings: ATCC 700221, 20 h
[14] = test system: Staphylococcus aureus; experiment: Bactericidal activity against vancomycin-resistant Staphylococcus aureus VRS10 up to 18 hrs by broth microdilution assay; type: functional; settings: VRS10, 18 h, read-out: MBC99.9
[15] = test system: Staphylococcus aureus; experiment: Bactericidal activity against Staphylococcus aureus RN4220 up to 18 hrs by broth microdilution assay; type: functional; settings: RN4220, 18 h, read-out: MBC99.9
[16] = test system: Staphylococcus aureus; experiment: Antibacterial activity against vancomycin-resistant Staphylococcus aureus VRS11a up to 20 hrs by broth microdilution assay; type: functional
[17] = Half life in human liver microsomes in absence of NADPH by LC-MS/MS analysis; type: ADME, microsome
[18] = Intrinsic clearance in human liver microsomes in absence of NADPH by LC-MS/MS analysis; type: ADME, microsome; settings: read-out: CLH
[19] = test system: Staphylococcus aureus; experiment: Antibacterial activity against methicillin-resistant Staphylococcus aureus NRS119 up to 20 hrs by broth microdilution assay; type: functional; settings: NRS119, 20 h
[20] = test system: Staphylococcus aureus; experiment: Antibacterial activity against methicillin-resistant Staphylococcus aureus USA300 at 4 times MIC after 12 hrs by time-kill assay; type: functional, organism-based
[21] = test system: Staphylococcus aureus; experiment: Antibacterial activity against methicillin-resistant Staphylococcus aureus USA400 NRS123 up to 20 hrs by broth microdilution assay; type: functional; settings: USA400 NRS123, 20 h
[22] = test system: Staphylococcus aureus; experiment: Antibacterial activity against Staphylococcus aureus RN4220 up to 20 hrs by broth microdilution assay; type: functional; settings: RN4220, 20 h
[23] = test system: Pseudomonas aeruginosa; experiment: Antibacterial activity against Pseudomonas aeruginosa ATCC 15442 up to 20 hrs by broth microdilution assay; type: functional; settings: ATCC 15442, 20 h
[24] = test system: HRT-18 cell line; experiment: Cytotoxicity against human HRT18 cells at 64 microg/ml after 6 hrs by MTS assay; type: cell-based; settings: hrt-18, 6 h
[25] = test system: HRT-18 cell line; experiment: Cytotoxicity against human HRT18 cells up to 32 microg/ml after 6 hrs by MTS assay; type: cell-based; settings: hrt-18, 6 h
[26] = test system: HRT-18 cell line; experiment: Cytotoxicity against human HRT18 cells up to 128 microg/ml after 6 hrs by MTS assay; type: cell-based; settings: hrt-18, 6 h
[27] = test system: Staphylococcus aureus; experiment: Potentiation of vancomycin-induced antibacterial activity against vancomycin-resistant Staphylococcus aureus VRS10 assessed as reduction in vancomycin MIC after 20 hrs by checkerboard assay; type: functional
[28] = test system: Staphylococcus aureus; experiment: Potentiation of vancomycin-induced antibacterial activity against vancomycin-resistant Staphylococcus aureus VRS10 assessed as vancomycin MIC at 0.5 times MIC after 20 to 22 hrs (reference value: […] ug/mL); type: functional
[29] = test system: Staphylococcus aureus; experiment: Potentiation of vancomycin-induced antibacterial activity against vancomycin-resistant Staphylococcus aureus VRS10 assessed as vancomycin MIC after 20 hrs by checkerboard assay; type: functional; settings: VRS10, 20 h
[30] = test system: Staphylococcus aureus; experiment: Synergistic antibacterial activity against vancomycin-resistant Staphylococcus aureus VRS10 after 20 hrs in presence of vancomycin by checkerboard assay; type: functional; settings: VRS10, 20 h

Cc1nc(-c2ccc(-c3ccccc3)cc2)sc1-c1ccnc(NC(=N)N)n1
solubility kinetic at 2 h [1]: 2.2 µM (≈ 0.85 µg/mL) | MIC [2]: 1.56 µg/mL (≈ 4.04 µM)

CCN(CC)c1nccc(-c2sc(-c3ccc(-c4ccccc4)cc3)nc2C)n1
MIC [2]: > 25 µg/mL

Cc1nc(-c2ccc(-c3ccccc3)cc2)sc1-c1ccnc(NC2CCCCC2)n1
MIC [2]: > 25 µg/mL

Cc1nc(-c2ccc(-c3ccccc3)cc2)sc1-c1ccnc(NC(=N)c2cccnc2)n1
MIC [2]: > 25 µg/mL

Cc1nc(-c2ccc(-c3ccccc3)cc2)sc1-c1ccnc(NC(=N)N2CCCCC2)n1
MIC [2]: > 25 µg/mL

C/C(=N\NC(=N)N)c1sc(-c2ccc(-c3ccccc3)cc2)nc1C
solubility kinetic at 2 h [1]: 2.7 µM (≈ 0.944 µg/mL) | Time [3]: 10 h | Papp B→A [4]: 1.2 ×10⁻⁶ cm/s | efflux ratio [5]: > 2 | MIC [2]: 1.6 to 2.4 µg/mL (≈ 4.58 to 6.87 µM)

Cc1nc(-c2ccc(-c3ccccc3)cc2)sc1-c1ccnc(N=C(N(C)C)N(C)C)n1
MIC [2]: > 25 µg/mL

CN[C@H](CC(C)C)C(=O)N[C@H]1C(=O)N[C@@H](CC(N)=O)C(=O)N[C@H]2C(=O)N[C@H]3C(=O)N[C@H](C(=O)N[C@H](C(=O)O)c4cc(O)cc(O)c4-c4cc3ccc4O)[C@H](O)c3ccc(c(Cl)c3)Oc3cc2cc(c3O[C@@H]2O[C@H](CO)[C@@H](O)[C@H](O)[C@H]2O[C@H]2C[C@](C)(N)[C@H](O)[C@H](C)O2)Oc2ccc(cc2Cl)[C@H]1O [VANCOMYCIN]
MBC [6]: 1 µg/mL (≈ 0.69 µM) | MBC [7]: 1 µg/mL (≈ 0.69 µM) | MIC [8]: 16 µg/mL (≈ 11 µM) | MBC [9]: > 512 µg/mL | MBC [10]: 256 µg/mL (≈ 177 µM) | Time [11]: 24 h | MIC [12]: 128 to 512 µg/mL (≈ 88.3 to 353 µM) | MIC [13]: > 64 µg/mL | MBC [14]: 512 µg/mL (≈ 353 µM) | MBC [15]: 1 µg/mL (≈ 0.69 µM) | MIC [2]: 1.56 µg/mL (≈ 1.08 µM) | MIC [16]: > 512 µg/mL

CCCCNc1nccc(-c2sc(-c3ccc(-c4ccccc4)cc3)nc2C)n1
MIC [2]: > 25 µg/mL

Cc1nc(-c2ccc(-c3ccccc3)cc2)sc1-c1ccnc(NC(=N)N2CCCC2)n1
MIC [2]: 12.5 µg/mL (≈ 28.4 µM)

Cc1nc(-c2ccc(-c3ccccc3)cc2)sc1-c1ccnc(N2CC(O)C2)n1
MIC [2]: 3.12 µg/mL (≈ 7.79 µM)

CCCCc1ccc(-c2nc(C)c(/C(C)=N/NC(=N)N)s2)cc1
half-life [17]: > 4 h | microsomal CLint [18]: < 9.6 µL/min/mg | Papp B→A [4]: 1.2 ×10⁻⁶ cm/s | efflux ratio [5]: > 2 | MIC [2]: 4.7 to 4.8 µg/mL (≈ 14.3 to 14.6 µM)

CCCCc1ccc(-c2nc(C)c(-c3ccnc(N)n3)s2)cc1
MIC [2]: 3.6 µg/mL (≈ 11.1 µM)

Cc1nc(-c2ccc(-c3ccccc3)cc2)sc1-c1ccnc(N2CCCC2)n1
MIC [2]: > 25 µg/mL

Cc1nc(-c2ccc(-c3ccccc3)cc2)sc1-c1ccnc(NC(=N)N2CCOCC2)n1
MIC [19]: 8 µg/mL (≈ 17.5 µM) | MBC [6]: 16 µg/mL (≈ 35 µM) | Activity [20]: inactive | MBC [7]: 16 µg/mL (≈ 35 µM) | MIC [21]: 16 µg/mL (≈ 35 µM) | MIC [22]: 8 µg/mL (≈ 17.5 µM) | MIC [8]: 64 µg/mL (≈ 140 µM) | MBC [9]: 64 µg/mL (≈ 140 µM) | MBC [10]: 64 µg/mL (≈ 140 µM) | MIC [12]: 32 µg/mL (≈ 70.1 µM) | MIC [23]: > 64 µg/mL | Activity [24]: Toxic | MIC [13]: 8 µg/mL (≈ 17.5 µM) | MBC [14]: 64 µg/mL (≈ 140 µM) | Activity [25]: Non-Toxic | MBC [15]: 32 µg/mL (≈ 70.1 µM) | MIC [2]: 0.78 µg/mL (≈ 1.71 µM) | MIC [16]: 32 µg/mL (≈ 70.1 µM)

Cc1nc(-c2ccc(-c3ccccc3)cc2)sc1-c1ccncn1
MIC [2]: > 25 µg/mL

Cc1nc(-c2ccc(-c3ccccc3)cc2)sc1-c1ccnc(-c2ccccn2)n1
MIC [2]: > 25 µg/mL

Cc1nc(-c2ccc(-c3ccccc3)cc2)sc1-c1ccnc(NC2CCCC2)n1
MIC [2]: > 25 µg/mL

Cc1nc(-c2ccc(-c3ccccc3)cc2)sc1-c1ccnc(N)n1
MIC [2]: 6.25 µg/mL (≈ 18.1 µM)

Cc1nc(-c2ccc(-c3ccccc3)cc2)sc1-c1ccnc(N2CCN(C)CC2)n1
Activity [26]: Non-Toxic | fractional inhibitory concentration index (FICI) [27]: 0.03 - 0.53 | MIC [28]: 1 µg/mL | MIC [12]: 32 µg/mL (≈ 74.8 µM) | MIC [29]: 0.5 to 64 µg/mL | MIC [30]: 1 µg/mL | MIC [2]: 6.25 µg/mL (≈ 14.6 µM)
